From the supplement of paper PMC11997997

Tests used:
[1] = tested on: murine bone marrow-derived macrophages; assay: area under cytotoxicity dose-response curve (AUC (% cytotoxicity x dose, relative)); higher = more cytotoxic; settings: duration: 6 days; dose range: 0.13-80 uM, 8 points
Procedure, shortened: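 An 8-point, 2.5-fold dilution series (final 80–0.13 μM) was applied for 6 days at 37 °C in 5% CO2 to primary murine bone marrow-derived macrophages plated in opaque 384-well plates. Promega's CellTiter-Glo luminescence assay measured viability, and percent cytotoxicity was normalised against vehicle and positive control wells. The area under the dose–response curve, worked out in GraphPad Prism version 10, is the reported cytotoxicity measure.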

[2] = tested on: Mycobacterium tuberculosis CDC1551 (intracellular, in murine BMDM); assay: area under intracellular growth-inhibition dose-response curve (AUC (% inhibition x dose, relative)); higher = more potent; settings: duration: 6 days; dose range: 0.13-80 uM, 8 points
Procedure, shortened: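 Each value is an area under the growth-inhibition dose–response curve, calculated with GraphPad Prism. Infected primary murine bone marrow-derived macrophages, carrying luciferase-expressing M. tuberculosis CDC1551 at multiplicity of infection 1, were treated for 6 days with an 8-dose, 2.5-fold series (final 80–0.13 μM) in 384-well opaque plates. Readout was by Bright-Glo luciferin assay, normalised to a reference drug control and the lowest-concentration wells.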

Structure (SMILES)	area under cytotoxicity dose-response curve [1]	area under intracellular growth-inhibition dose-response curve [2]
CCOC(=O)/C=C/C(=O)Nc1ccc(-c2nnc3n2CCCCC3)cc1	34.8	131
O=C(N/N=C/c1cccc2nccnc12)c1ccncc1	36.1	271
CNc1ncnc2c1ncn2[C@@H]1O[C@H](CO)[C@@H](O)[C@H]1O	32.7	39.4
NC(=S)N/N=C/c1ccc(-c2cccc([N+](=O)[O-])c2)o1	51.4	206
O=C(Nc1ccc(OC(F)(F)F)cc1)c1ccc2c(c1)no[n+]2[O-]	< 0	230
O=C(OCC(=O)c1ccc(Cl)cc1Cl)c1ccccn1	10.1	205
Cc1ccc(C[n+]2c(-c3ccc(C)cc3)cc(-c3ccc(C)cc3)cc2-c2ccc(C)cc2)cc1.[O-][Cl+3]([O-])([O-])[O-]	59.3	253
CC(C)c1ccc(NC(=S)Nc2ccc3c[nH]nc3c2)cc1	< 0	271
O=C(NCCC1=CCCCC1)NC12CC3CC(CC(C3)C1)C2	60.3	196
Cc1ccc(C)c2sc(N3CCN(C(=O)c4ccc([N+](=O)[O-])o4)CC3)nc12	33.4	3.34
CCOc1ccc2oc(C(=O)OCC(=O)NC3CCCCC3)c(C)c2c1	< 0	119
CC1CN(c2ccc(NC(=S)Nc3ccc(N4CC(C)OC(C)C4)cc3)cc2)CC(C)O1 (centres undefined)	17.3	186
C=C1c2cccc(O)c2C(=O)C2C(=O)[C@]3(O)C(=O)C(C(N)=O)C(=O)[C@@H](N(C)C)[C@@H]3[C@@H](O)[C@H]12.Cl (some centres undefined)	3.53	272
Cl.N=C(NCCCCCCNC(=N)NC(=N)Nc1ccc(Cl)cc1)NC(=N)Nc1ccc(Cl)cc1	120	43
Cc1cccc(-n2c(C)cc(/C=N/NC(N)=S)c2C)c1	< 0	235
Cc1c2c(nc3ccccc13)CCC(C)C2.Cl (centres undefined)	< 0	199
CCCCN(C(=O)CSc1nnc(-c2ccccc2)o1)c1c(N)n(CCC)c(=O)[nH]c1=O	< 0	65.6
O=C(Nc1ccn(Cc2ccccc2)n1)c1ccc2c(c1)OCO2	62.2	121
O=C(COc1ccccc1)NCc1cccs1	14.2	130
COc1ccc(CCNC(=O)c2c(C)nc3ccccn23)cc1	< 0	198
COc1cc(-c2cc(C(=O)Nc3ccncc3)c3ccccc3n2)cc(OC)c1OC	0.318	32.8
CN(C(=O)CSc1ncnc2sc3c(c12)CCC3)C1CCS(=O)(=O)C1 (centres undefined)	4.88	60.2
COc1ccc(CNC(=O)c2c(C)nc3ccccn23)cc1	8.66	268
CSc1sccc1/C=N/NC(=O)c1ccncc1	15.4	249

Structure (SMILES)	area under cytotoxicity dose-response curve [1]	area under intracellular growth-inhibition dose-response curve [2]
CCC[C@@H](CN1CCC[C@H]1CN1C(N)=NC[C@H]1CC(C)C)N1C[C@@H]([C@H](C)CC)N(CCc2ccc(Cl)c(Cl)c2)C1=N	13.4	129
CCOC(=O)c1c(NC(=O)CN2C(=O)N(C)C3(CCCCC3)C2=O)sc(C(=O)N(C)C)c1C	38.6	65
C/C(=N\NC(=O)c1ccncc1)c1ccc(N(C)C)cc1	58.7	182
O=[N+]([O-])c1cc([N+](=O)[O-])c2nonc2c1Nc1ccccc1O	5.05	146
CCCOc1ccc(C(=O)CCC(=O)NNC(=O)c2ccncc2)cc1	< 0	269
COc1cc(OC)c([N+](=O)[O-])cc1/C=N/NC(=O)c1ccncc1	19	242
Nc1ccc(C(=O)[O-])c(O)c1.[Na+]	27.5	182
O=C(CSc1cccc[n+]1[O-])Nc1ccccc1Oc1ccccc1	53.2	39.4
NC(=S)NN=C1Cc2cccc3cccc1c23	58.9	263
COC(=O)Cc1ccc(NC(=S)Nc2ccc(N3CCOCC3)cc2)cc1	50.5	241
O=C(CSc1cccc[n+]1[O-])CSc1cccc[n+]1[O-]	9.55	29.1
CNC[C@@H](CC1CCCCC1)NC[C@H](CC(C)C)NCCc1cccc(C(F)(F)F)c1	94	197
Cc1ccc(C(=O)OCC(=O)Nc2ccccc2)cc1S(=O)(=O)N1CCCCC1	< 0	94.3
Cc1cc(C(F)F)nn1CC(=O)NC1C(=O)N2C(C(=O)O)=C(CSc3nnnn3C)CSC12 (centres undefined)	110	86.3
Cc1ccnc2c1ccc1cccnc12	208	149
O=C(Nc1ccc(NC(=S)NC(=O)c2ccccc2F)cc1)c1cccs1	13.8	268
CCOC(=O)/C=C/C(=O)NNC(=O)c1ccccc1Cl	186	49.3
O=C(NN=C(Cc1ccccc1)Cc1ccccc1)c1ccncc1	7.4	257
Cc1ccc(-[n+]2c(-c3ccc(Br)cc3)cn3c2CCc2ccc4cccnc4c2-3)cc1.[Br-]	29	96.2
CC1CCC(C(C)C)C(OC(=O)Cn2c(-c3ccc(Br)cc3)[n+](C)c3ccccc32)C1.[Cl-] (centres undefined)	147	128
NNC(=O)c1ccncc1	< 0	272
CCOc1ncnc2c1oc1nc(CC(C)C)c3c(c12)CC(C)(C)OC3	63.6	115
COc1ccc(OCCCC(=O)NNC(=O)c2ccncc2)cc1	6.62	227
